Test results from publication PMC9688344, “[^225Ac]Ac-SibuDAB for Targeted Alpha Therapy of Prostate Cancer: Preclinical Evaluation and Comparison with [^225Ac]Ac-PSMA-617” (Cancers, 2022).
Read-outs that look alike come from different tables or passages of the source.

What was measured:
[1] = tested on: PC3-PIP/flu tumor-bearing mice; assay: Biodistribution studies; type: in vivo, BALB/c nude mice; conditions: 48 h p.i.
[2] = tested on: PSMA-positive PC-3 PIP tumor xenografts; assay: Therapy study in PC-3 PIP tumor-bearing mice; type: in vivo, BALB/c nude mice; conditions: 10 MBq
Protocol: Five days after subcutaneous inoculation of four groups of mice with either PC-3 PIP or PC-3 flu tumor cells on the right shoulder (4 × 10^6 cells in 100 μL HBSS), the mice were intravenously injected with either vehicle only (saline with 0.05% BSA, n = 6 and n = 4, respectively) or with 30 kBq [^225Ac]Ac-SibuDAB (1 nmol per mouse; n = 4 per group) diluted in vehicle (Table 1).
After tumor cell inoculation, mice bearing PC-3 PIP tumor xenografts were intravenously injected with vehicle only (n = 6) or with [^225Ac]Ac-SibuDAB or [^225Ac]Ac-PSMA-617, respectively, applied at 5 kBq or 10 kBq (1 nmol per mouse; n = 6 per group; Table 1). The control group consisted of mice from several studies (n = 12 mice) and the data from this group were published previously.
After administration of the radioligands, the mice were monitored over 8 weeks using the same measures as previously published by Umbricht et al.. The relative body mass was defined as [BMx/BM0], where BMx is the body mass in grams at a given Day x and BM0 is the body mass in grams at Day 0. The tumor dimension was determined by measuring the longest tumor axis (L) and its perpendicular axis (W) with a digital caliper. The tumor volume (V) was calculated according to the equation [V = 0.5 × (LW^2)]. The relative tumor volume was defined as [TVx/TV0], where TVx is the tumor volume in mm^3 at a given Day x, and TV0 is the tumor volume in mm^3 at Day 0. Endpoint criteria that required euthanasia were defined as (i) body mass loss of >15%, (ii) a tumor volume of >800 mm^3, (iii) a combination of body mass loss of >10% and a tumor volume of >700 mm^3 or, (iv) signs of unease and pain or a combination thereof using a scoring system as previously reported. The median survival of mice of each group was assessed with Kaplan–Meier curves. Potential early side effects for mice that survived until study end were determined based on blood chemistry and organ-to-brain mass ratios on Day 56 by comparison to values obtained from an additional group of therapy-naïve mice (n = 4) without tumors but of the same age (Supplementary Material: Section S9).
Table S10. Biodistribution data and tumor-to-background ratios obtained in PC3-PIP/flu tumor-bearing mice 48 h after injection of [225Ac]Ac-SibuDAB, [177Lu]Lu-SibuDAB, [225Ac]Ac-PSMA-617 or [177Lu]Lu-PSMA-617. Decay-corrected data of accumulated activity are shown as [% IA/g]-values, representing the average ± SD.
Biodistribution data at 48 h p.i.
1 Data of [177Lu]Lu-PSMA-617 were previously published by Benešová et al., Mol Pharm 2018 [2]; Copyright 2018, American Chemical Society.
Purpose: In order to determine the therapeutic efficacy of [225Ac]Ac-SibuDAB in com-parison to [225Ac]Ac-PSMA-617 as well as the 177Lu-labeled counterparts, therapy studies were conducted in PC-3 PIP xenograft-bearing BALB/c nude mice.
Methods: The methods of the therapy study to assess the therapeutic efficacy of [225Ac]Ac-SibuDAB are reported in the main manuscript. An additional group of mice was treated with 10 MBq (1 nmol) [177Lu]Lu-SibuDAB under the same experimental condi-tions. Data previously acquired by our group for mice treated with 5 MBq [177Lu]Lu-SibuDAB were published by Borgna & Deberle et al. and data of mice treated with 5 MBq or 10 MBq [177Lu]Lu-PSMA-617 were previously published by Tschan et al. and Umbricht et al., respectively.
Results: The assessment of the PSMA-specific therapeutic effect of [225Ac]Ac-SibuDAB as well as the comparison to [225Ac]Ac-PSMA-617 are described in the main ar-ticle. The body mass of effectively treated mice, in which the tumor disappeared entirely […]
tumor-bearing mice that were treated with only vehicle as well as for some mice that were treated with 5 kBq or 10 kBq [225Ac]Ac-PSMA-617 and experienced a relapse in tumor

[3] = cited from earlier work
[4] = tested on: PSMA-positive PC-3 PIP cells; conditions: 4 h incubation; ref Borgna & Deberle et al., Mol Pharm 2022; cited from earlier work
PSMA = molecular target: T1, PSMA (Homo sapiens, UniProt Q04609); conditions: ref Borgna & Deberle et al., Mol Pharm 2022; cited from earlier work
T1 construct: expressed in transfected cells; host or cells: PC-3 PIP prostate cancer cells (transduced to express PSMA), provided by Prof; Dr. Martin Pomper, Johns Hopkins University
T1 sequence (Q04609 whole entry): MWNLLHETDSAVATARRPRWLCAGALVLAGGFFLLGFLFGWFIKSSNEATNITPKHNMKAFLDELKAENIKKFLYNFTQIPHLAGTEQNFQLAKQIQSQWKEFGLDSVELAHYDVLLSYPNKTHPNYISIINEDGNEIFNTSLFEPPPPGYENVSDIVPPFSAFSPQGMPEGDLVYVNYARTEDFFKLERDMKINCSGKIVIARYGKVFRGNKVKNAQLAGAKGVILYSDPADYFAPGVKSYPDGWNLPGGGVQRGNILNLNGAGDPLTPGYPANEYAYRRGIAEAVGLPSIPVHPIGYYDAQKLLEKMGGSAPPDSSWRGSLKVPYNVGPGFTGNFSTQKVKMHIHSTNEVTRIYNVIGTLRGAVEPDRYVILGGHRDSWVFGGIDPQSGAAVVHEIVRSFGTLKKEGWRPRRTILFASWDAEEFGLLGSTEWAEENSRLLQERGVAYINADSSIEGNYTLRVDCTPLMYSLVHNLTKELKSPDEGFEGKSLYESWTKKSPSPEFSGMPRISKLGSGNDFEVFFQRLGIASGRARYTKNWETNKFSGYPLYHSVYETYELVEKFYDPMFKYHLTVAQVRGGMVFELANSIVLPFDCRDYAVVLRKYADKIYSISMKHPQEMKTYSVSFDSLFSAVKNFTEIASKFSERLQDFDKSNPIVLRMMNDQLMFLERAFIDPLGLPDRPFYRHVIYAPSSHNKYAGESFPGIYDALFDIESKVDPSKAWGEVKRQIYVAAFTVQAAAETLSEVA

[5] = tested on: PC3-PIP/flu tumor-bearing mice; conditions: ref Borgna & Deberle et al., Mol Pharm 2022, cited from earlier work
[6] = tested on: PSMA-positive PC-3 PIP tumor xenografts; set-up: method as in Borgna & Deberle et al., Mol Pharm 2022; conditions: 5 MBq, ref Borgna & Deberle et al., Mol Pharm 2022; cited from earlier work

CC(C)Cc1ccc(C(C)C(=O)NC(CCN)C(=O)NCCCCC(NC(=O)CN2CCN(CC(=O)[O-])CCN(CC(=O)[O-])CCN(CC(=O)[O-])CC2)C(=O)NCC2CCC(C(=O)NC(Cc3ccc4ccccc4c3)C(=O)NCCCCC(NC(=O)NC(CCC(=O)O)C(=O)O)C(=O)O)CC2)cc1.[177Lu+3] (stereo not shown) [[^177Lu]Lu-SibuDAB]
Blood, accumulated activity [1]: 0.27 ± 0.04 % IA/g | Bone, accumulated activity [1]: ≤ 0.10 % IA/g | Heart, accumulated activity [1]: 0.14 ± 0.02 % IA/g | Intestines, accumulated activity [1]: 0.10 ± 0.03 % IA/g | Kidneys, accumulated activity [1]: 3.5 ± 0.7 % IA/g | Liver, accumulated activity [1]: 0.44 ± 0.06 % IA/g | Lung, accumulated activity [1]: 0.33 ± 0.07 % IA/g | Muscle, accumulated activity [1]: 0.07 ± 0.02 % IA/g | PC-3 PIP tumor, accumulated activity [1]: 69 ± 12 % IA/g | PC-3 flu tumor, accumulated activity [1]: 0.30 ± 0.07 % IA/g | Salivary glands, accumulated activity [1]: 0.18 ± 0.05 % IA/g | Spleen, accumulated activity [1]: 0.43 ± 0.10 % IA/g | Stomach, accumulated activity [1]: 0.12 ± 0.06 % IA/g | Tumor-to-blood ratio [1]: 252 ± 24 | Tumor-to-kidney ratio [1]: 20 ± 2 | Tumor-to-liver ratio [1]: 157 ± 14 | mice whose tumor xenografts disappeared completely without relapse until Day 56 [2]: five out of six | start of tumor regrowth in the other mice [2]: ~ 7 weeks | mice whose tumor xenografts disappeared completely without relapse until Day 56 ([2]; listed as [177Lu]Lu-SibuDAB): five out | logD value [3]: −2.3 ± 0.1 | Cell uptake [4]: 53 ± 1% | Internalized fraction [4]: 15 ± 2% | Kd (PSMA): 27 nM | Blood, accumulated activity ([5]; 1 h p.i.): 17 ± 2 % IA/g | Bone, accumulated activity ([5]; 1 h p.i.): 2.1 ± 0.3 % IA/g | Heart, accumulated activity ([5]; 1 h p.i.): 5.3 ± 0.8 % IA/g | Intestines, accumulated activity ([5]; 1 h p.i.): 1.8 ± 0.3 % IA/g | Kidneys, accumulated activity ([5]; 1 h p.i.): 22 ± 5 % IA/g | Liver, accumulated activity ([5]; 1 h p.i.): 3.5 ± 0.6 % IA/g | Lung, accumulated activity ([5]; 1 h p.i.): 12 ± 2 % IA/g | Muscle, accumulated activity ([5]; 1 h p.i.): 1.9 ± 0.3 % IA/g | PC-3 PIP tumor, accumulated activity ([5]; 1 h p.i.): 38 ± 7 % IA/g | PC-3 flu tumor, accumulated activity ([5]; 1 h p.i.): 2.7 ± 0.4 % IA/g | Salivary glands, accumulated activity ([5]; 1 h p.i.): 3.5 ± 0.4 % IA/g | Spleen, accumulated activity ([5]; 1 h p.i.): 3.0 ± 0.4 % IA/g | Stomach, accumulated activity ([5]; 1 h p.i.): 1.5 ± 0.4 % IA/g | Tumor-to-blood ratio ([5]; 1 h p.i.): 2.3 ± 0.5 | Tumor-to-kidney ratio ([5]; 1 h p.i.): 1.7 ± 0.3 | Tumor-to-liver ratio ([5]; 1 h p.i.): 11 ± 2 | Blood, accumulated activity ([5]; 4 h p.i.): 2.9 ± 1.9 % IA/g | Bone, accumulated activity ([5]; 4 h p.i.): 0.49 ± 0.27 % IA/g | Heart, accumulated activity ([5]; 4 h p.i.): 1.1 ± 0.7 % IA/g | Intestines, accumulated activity ([5]; 4 h p.i.): 0.46 ± 0.23 % IA/g | Kidneys, accumulated activity ([5]; 4 h p.i.): 12 ± 3 % IA/g | Liver, accumulated activity ([5]; 4 h p.i.): 1.3 ± 0.5 % IA/g | Lung, accumulated activity ([5]; 4 h p.i.): 3.1 ± 2.8 % IA/g | Muscle, accumulated activity ([5]; 4 h p.i.): 0.39 ± 0.22 % IA/g | PC-3 PIP tumor, accumulated activity ([5]; 4 h p.i.): 66 ± 11 % IA/g | PC-3 flu tumor, accumulated activity ([5]; 4 h p.i.): 0.95 ± 0.71 % IA/g | Salivary glands, accumulated activity ([5]; 4 h p.i.): 0.82 ± 0.43 % IA/g | Spleen, accumulated activity ([5]; 4 h p.i.): 1.1 ± 0.6 % IA/g | Stomach, accumulated activity ([5]; 4 h p.i.): 0.49 ± 0.29 % IA/g | Tumor-to-blood ratio ([5]; 4 h p.i.): 49 ± 51 | Tumor-to-kidney ratio ([5]; 4 h p.i.): 5.5 ± 1.5 | Tumor-to-liver ratio ([5]; 4 h p.i.): 61 ± 29 | Blood, accumulated activity ([5]; 24 h p.i.): 0.26 ± 0.08 % IA/g | Bone, accumulated activity ([5]; 24 h p.i.): 0.11 ± 0.04 % IA/g | Heart, accumulated activity ([5]; 24 h p.i.): 0.15 ± 0.05 % IA/g | Intestines, accumulated activity ([5]; 24 h p.i.): 0.13 ± 0.06 % IA/g | Kidneys, accumulated activity ([5]; 24 h p.i.): 4.3 ± 1.0 % IA/g | Liver, accumulated activity ([5]; 24 h p.i.): 0.54 ± 0.18 % IA/g | Lung, accumulated activity ([5]; 24 h p.i.): 0.31 ± 0.10 % IA/g | Muscle, accumulated activity ([5]; 24 h p.i.): ≤ 0.10 % IA/g | PC-3 PIP tumor, accumulated activity ([5]; 24 h p.i.): 62 ± 18 % IA/g | PC-3 flu tumor, accumulated activity ([5]; 24 h p.i.): 0.38 ± 0.09 % IA/g | Salivary glands, accumulated activity ([5]; 24 h p.i.): 0.18 ± 0.05 % IA/g | Spleen, accumulated activity ([5]; 24 h p.i.): 0.40 ± 0.13 % IA/g | Stomach, accumulated activity ([5]; 24 h p.i.): 0.12 ± 0.06 % IA/g | Tumor-to-blood ratio ([5]; 24 h p.i.): 247 ± 34 | Tumor-to-kidney ratio ([5]; 24 h p.i.): 14 ± 1 | Tumor-to-liver ratio ([5]; 24 h p.i.): 117 ± 14 | mice whose tumor xenografts disappeared completely without relapse until Day 56 [6]: two out of six | start of tumor regrowth in the other mice [6]: ~ 4 weeks
